According to US20170056504A1, “METHOD OF EXTENDING HALF-LIFE OF CRYSTALINE ANTIBODIES” (priority 2015, published 2017):

Legend:
[1] = Lactulose with antibiotics cocktail: xPCSK9 mAb serum half-life and large intestine pH; type: in vivo, C57BL6 mice; settings: with antibiotics cocktail in drinking water
Experimental: At Day 0, anti-PCSK9-mAb was systemically administrated (30 mg/kg in PBS, i.v.) to the FcRn gene knockout mice or their wild type C57BL/6 mice (8 w old male). Lactulose (30%, water solution) was orally administered using a Popper's feeding needle once in a day throughout the experiment. In some experiment, groups of mice received antibiotics cocktail (Ampicillin, 2 mg/ml; Vancomycin, 1 mg/ml, Metronidazole 2 mg/ml and Neomycin, 2 mg/ml) ad libitum for 7 days. Blood was collected from mice at Day 1 and Day 7 (100 ul/mouse) by retro-orbital bleeding. The serum was separated from the collected blood and saved at −70 C until the measurement of anti-PCSK9-mAb as well as low-density lipoprotein (LDL) cholesterol in the sampled serum. At Day 7, right after the collection of blood, mice were sacrificed, and liver, small intestine (distal portion, 2 cm above cecum) and large intestine (proximal colon, 1 cm below cecum) were collected. […] The amount of LDL/VLDL in the serum was monitored using a HDL and LDL/VLDL Quantitation Kit (Sigma-Aldrich). The amount of anti-PCSK9-mAb in serum, liver, small and large intestines were measured using the ELISA as described above #1. […] In FIG. 11B, content of large intestine sampled from sacrificed mice was suspended in water (0.1 g/1 ml) and the pH was monitored.

[2] = system: Substance P and nerve growth factor (NGF); experiment: Pregabalin-mediated suppression of pain associated factors with lactulose-generated hydrogen; type: in vivo; settings: hydrogen generated by lactulose, mice
[3] = Mouse model of high fat diet induced hyperlipidemia (another study); type: in vivo
PCSK9 = PCSK9 (Mus musculus, UniProt Q80W65); experiment: LDL level in blood serum of mice that received xPCSK9 mAb and/or lactulose; type: in vivo, C57BL6 mice; parameters: endogenous in cells; host or cells: C57BL6 mice, in vivo (circulating PCSK9 of the animal); settings: oral lactulose alone without xPCSK9 mAb, Day 7
Sequence of PCSK9 (Q80W65 156-694): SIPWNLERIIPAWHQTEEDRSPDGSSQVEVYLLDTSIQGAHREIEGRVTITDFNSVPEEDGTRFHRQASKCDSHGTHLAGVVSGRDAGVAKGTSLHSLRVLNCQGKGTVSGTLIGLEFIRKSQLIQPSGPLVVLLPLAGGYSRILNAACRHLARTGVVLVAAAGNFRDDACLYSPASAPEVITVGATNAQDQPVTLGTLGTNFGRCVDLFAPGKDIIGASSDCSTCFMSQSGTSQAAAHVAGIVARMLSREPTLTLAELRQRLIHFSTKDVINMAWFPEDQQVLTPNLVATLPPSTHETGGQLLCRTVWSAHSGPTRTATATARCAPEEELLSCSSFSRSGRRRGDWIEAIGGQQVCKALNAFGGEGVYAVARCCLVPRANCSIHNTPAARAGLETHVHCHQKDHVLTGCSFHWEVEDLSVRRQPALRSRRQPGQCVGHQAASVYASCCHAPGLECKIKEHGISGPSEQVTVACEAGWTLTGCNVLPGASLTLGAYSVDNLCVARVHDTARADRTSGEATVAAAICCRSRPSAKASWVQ
Experimental: At Day 0, anti-PCSK9-mAb was systemically administrated (30 mg/kg in PBS, i.v.) to the FcRn gene knockout mice or their wild type C57BL/6 mice (8 w old male). Lactulose (30%, water solution) was orally administered using a Popper's feeding needle once in a day throughout the experiment. In some experiment, groups of mice received antibiotics cocktail (Ampicillin, 2 mg/ml; Vancomycin, 1 mg/ml, Metronidazole 2 mg/ml and Neomycin, 2 mg/ml) ad libitum for 7 days. Blood was collected from mice at Day 1 and Day 7 (100 ul/mouse) by retro-orbital bleeding. The serum was separated from the collected blood and saved at −70 C until the measurement of anti-PCSK9-mAb as well as low-density lipoprotein (LDL) cholesterol in the sampled serum. […] The amount of LDL/VLDL in the serum was monitored using a HDL and LDL/VLDL Quantitation Kit (Sigma-Aldrich). The amount of anti-PCSK9-mAb in serum, liver, small and large intestines were measured using the ELISA as described above #1. […]
From Day-0 to Day 7, Lactulose (50% water solution, 0.2 ml/mouse) or control water (0.2 ml/mouse) was orally administered once/day. […] At Day 0, prior to any administrations, and Day 7, blood serum was collected and the concentration of LDL was monitored using LDL detection kit (Sigma).

OC[C@H]1O[C@@H](O[C@@H]2[C@@H](CO)OC(O)(CO)[C@H]2O)[C@H](O)[C@@H](O)[C@H]1O (mixture of isomers) [lactulose]
effect of lactulose on extending the serum half-life of xPCSK9 mAb [1]: abolished | effect on pregabalin-mediated suppression of Substance P and NGF [2]: additive effect | oxidized LDL (oxLDL) [3]: can suppress | LDL level in blood serum versus base line (Day 0) (PCSK9): did not show any changes from the base line level
